Here are results for five compounds from ChEMBL document CHEMBL4024712, “Synthesis, stability and mechanistic studies of potent anticryptococcal hexapeptides” (Eur J Med Chem, 2017).

≈ marks a conversion by molar mass, not a printed value. Calls of active or inactive are those of the source. Non-standard residues stand in square brackets, D forms with d. Residues, ends and D or L forms follow the SMILES beside them. His(τ-Bzl) = N[C@@H](Cc1cn(Cc2ccccc2)cn1)C(=O)O; Phe(4-Me) = Cc1ccc(C[C@H](N)C(=O)O)cc1; 1Nal = N[C@@H](Cc1cccc2ccccc12)C(=O)O; Bta = N[C@@H](Cc1csc2ccccc12)C(=O)O; Cha = N[C@@H](CC1CCCCC1)C(=O)O; Orn = NCCC[C@H](N)C(=O)O

The test system of data set [1] is Staphylococcus aureus. The experiment in a line: Bactericidal activity against Staphylococcus aureus ATCC 29213 by CLSI method. The format is functional.
For data set [2], the system named is Aspergillus fumigatus. The experiment in a line: Fungicidal activity against Aspergillus fumigatus ATCC 90906 after 68 to 72 hrs by Alamar blue assay. The format is functional. In general terms: Resazurin is reduced to fluorescent resorufin, in cell work by metabolically active cells.
Data set [3] relates to Staphylococcus aureus. The data set is described as follows: Bactericidal activity against methicillin-resistant Staphylococcus aureus ATCC 33591 by CLSI method. The data set is classed as functional.
The subject of the next data set is Pseudomonas aeruginosa. The experiment in a line: Anti-bacterial activity against Pseudomonas aeruginosa ATCC 27853 by CLSI method. The data set is classed as functional.
In data set [4] the test system is Candida albicans. The data set is described as follows: Antifungal activity against Candida albicans ATCC 90028 after 18 to 24 hrs by Alamar blue assay. The format is functional. As to conditions: for MIC: Candida albicans, ATCC 90028.
Data set [5] concerns Pichia kudriavzevii. The experiment in a line: Antifungal activity against Candida krusei ATCC 6258 after 18 to 24 hrs by Alamar blue assay. The settings on record: Pichia kudriavzevii, ATCC 6258; for IC50: read-out: IC50. The data set is classed as functional.
The subject of data set [6] is Nakaseomyces glabratus. The data set is described as follows: Fungicidal activity against Candida glabrata ATCC 90030 after 18 to 24 hrs by Alamar blue assay. The data set is classed as functional.
For data set [7], the system named is Staphylococcus aureus. The experiment in a line: Anti-bacterial activity against Staphylococcus aureus ATCC 29213 by CLSI method. The data set is classed as functional. The settings on record: for MIC: Staphylococcus aureus, ATCC 29213.
In the next data set the test system is Vero. The data set is described as follows: Cytotoxicity against African green monkey Vero cells up to 10 ug/ml after 48 hrs by neutral red dye based assay. The format is cell-based. The settings on record: chlorocebus sabaeus.
The test system of data set [8] is Cryptococcus neoformans. The data set is described as follows: Antifungal activity against Cryptococcus neoformans ATCC 90113 after 68 to 72 hrs by Alamar blue assay. The data set is classed as functional.
In data set [9] the test system is Nakaseomyces glabratus. The experiment in a line: Antifungal activity against Candida glabrata ATCC 90030 after 18 to 24 hrs by Alamar blue assay. The data set is classed as functional.
For data set [10], the system named is Mycobacterium intracellulare. The data set is described as follows: Anti-bacterial activity against Mycobacterium intracellulare ATCC 23068 after 68 to 72 hrs by Alamar blue assay. The data set is classed as functional, cell-based.
The test system of data set [11] is Staphylococcus aureus. The data set is described as follows: Anti-bacterial activity against methicillin-resistant Staphylococcus aureus ATCC 33591 by CLSI method. The format is functional. As to conditions: for MIC: Staphylococcus aureus, ATCC 33591.
The test system of data set [12] is Candida albicans. The experiment in a line: Fungicidal activity against Candida albicans ATCC 90028 after 18 to 24 hrs by Alamar blue assay. The data set is classed as functional.
The subject of data set [13] is Aspergillus fumigatus. The data set is described as follows: Antifungal activity against Aspergillus fumigatus ATCC 90906 after 68 to 72 hrs by Alamar blue assay. The data set is classed as functional.
The subject of data set [14] is Escherichia coli. The experiment in a line: Bactericidal activity against Escherichia coli ATCC 35218 by CLSI method. The data set is classed as functional.
Data set [15] relates to Cryptococcus neoformans. The data set is described as follows: Fungicidal activity against Cryptococcus neoformans ATCC 90113 after 68 to 72 hrs by Alamar blue assay. The format is functional.
The subject of data set [16] is Pichia kudriavzevii. The data set is described as follows: Fungicidal activity against Candida krusei ATCC 6258 after 18 to 24 hrs by Alamar blue assay. The data set is classed as functional.
For data set [17], the system named is Escherichia coli. The experiment in a line: Anti-bacterial activity against Escherichia coli ATCC 35218 by CLSI method. The data set is classed as functional. As to conditions: Escherichia coli, ATCC 35218; for IC50: read-out: IC50.
Data set [18] can be described thus: Proteolytic stability assessed as trypsin (unknown origin)-mediated compound hydrolysis at compound to trypsin ratio of 0.5 to […] measured after 24 hrs by RP-HPLC method. The format is ADME. As to conditions: human.
Data set [19] relates to Lipid bilayer. The data set is described as follows: Binding affinity to EYPC/cholesterol small unilamellar vesicles at 0.1 uM by tryptophan fluorescence quenching assay. The format is ADME.
The subject of data set [20] is Lipid bilayer. The data set is described as follows: Binding affinity to EYPC/EYPG small unilamellar vesicles at 0.1 uM by tryptophan fluorescence quenching assay.
The nature of data set [21]: Selectivity index ratio of cytotoxic concentration against African green monkey Vero cells to IC50 for Cryptococcus neoformans ATCC 90113. The data set is classed as toxicity. As to conditions: read-out: Selectivity Index.
Where [22] appears, read: Nakaseomyces glabratus, ATCC 90030.
Where [23] appears, read: Aspergillus fumigatus, ATCC 90906.

For orientation: MBC means the lowest tested concentration that kills the bacteria rather than only halting them. What is called MFC is the smallest concentration meeting the test's criterion for killing the fungus. Usually IC50 stands for the concentration that gives 50% inhibition. By MIC is commonly meant the lowest concentration found to suppress growth. On to `NCCC[C@H](N)C(=O)N[C@H](Cc1c[nH]c2ccccc12)C(=O)N[C@@H](CC1CCCCC1)C(=O)N[C@@H](Cc1cccc2ccccc12)C(=O)N[C@H](Cc1ccccc1)C(=O)N[C@@H](Cc1cn(Cc2ccccc2)cn1)C(N)=O` (H-[Orn][dW][Cha][1Nal][dF][His(τ-Bzl)]-NH2), for which the minimum bactericidal concentration (MBC) with Staphylococcus aureus [1] amounted to 10 µg/mL (≈ 9.59 µM); with Staphylococcus aureus [3], 20 µg/mL (≈ 19.2 µM). Further, the MFC against Aspergillus fumigatus [2], in the data set with Nakaseomyces glabratus [6] and in the data set with Candida albicans [12] was 20 µg/mL (≈ 19.2 µM) throughout. The concentration for half-maximal inhibition (IC50) entry (with Pseudomonas aeruginosa; in data set [10]) was “Not Active” each time. For the same compound, the MIC in the data set with Candida albicans [4] was found to be 20 µg/mL (≈ 19.2 µM); with Pichia kudriavzevii [5], 10 µg/mL (≈ 9.59 µM); in the data set on Staphylococcus aureus [7] it was 10 µg/mL (≈ 9.59 µM); with Cryptococcus neoformans [8] it was 2.5 µg/mL (≈ 2.4 µM); in the data set with Nakaseomyces glabratus [9] (setting [22]), 20 µg/mL (≈ 19.2 µM); against Staphylococcus aureus [11], 10 µg/mL (≈ 9.59 µM). In the data set with Vero, the Activity entry was “Non-Toxic”.
On to `NCCC[C@H](N)C(=O)N[C@H](Cc1c[nH]c2ccccc12)C(=O)N[C@@H](CC1CCCCC1)C(=O)N[C@@H](Cc1csc2ccccc12)C(=O)N[C@H](Cc1ccccc1)C(=O)N[C@@H](Cc1cn(Cc2ccccc2)cn1)C(N)=O` (H-[Orn][dW][Cha][Bta][dF][His(τ-Bzl)]-NH2), for which the MBC worked out at 10 µg/mL (≈ 9.54 µM) against Staphylococcus aureus [1], 20 µg/mL (≈ 19.1 µM) against Staphylococcus aureus [3] and 20 µg/mL (≈ 19.1 µM) against Escherichia coli [14]. In addition, the minimum fungicidal concentration (MFC) in the data set on Aspergillus fumigatus [2] was 10 µg/mL (≈ 9.54 µM); in the data set with Nakaseomyces glabratus [6] it was 10 µg/mL (≈ 9.54 µM); in the data set on Cryptococcus neoformans [15], 1.25 µg/mL (≈ 1.19 µM); against Pichia kudriavzevii [16], 10 µg/mL (≈ 9.54 µM). For the same compound, the minimal inhibitory concentration (MIC) against Candida albicans [4], in the data set with Aspergillus fumigatus [13] (setting [23]), in the data set with Pichia kudriavzevii [5], in the data set on Nakaseomyces glabratus [9] (setting [22]) and in the data set with Staphylococcus aureus [11] was 10 µg/mL (≈ 9.54 µM) each time. Also, the IC50 is 6.51 µg/mL (≈ 6.21 µM) in the data set with Pichia kudriavzevii [5] and “Not Active” in data set [10]. In addition, the Activity entry with Vero is given as “Non-Toxic”.
Take `NCCC[C@H](N)C(=O)N[C@H](Cc1c[nH]c2ccccc12)C(=O)N[C@@H](CC1CCCCC1)C(=O)N[C@@H](CC1CCCCC1)C(=O)N[C@H](Cc1ccccc1)C(=O)N[C@@H](Cc1cn(Cc2ccccc2)cn1)C(N)=O` (H-[Orn][dW][Cha][Cha][dF][His(τ-Bzl)]-NH2): the MFC against Aspergillus fumigatus [2] came out at 20 µg/mL (≈ 20 µM); in the data set with Pichia kudriavzevii [16], 10 µg/mL (≈ 10 µM); in the data set on Candida albicans [12] it was 10 µg/mL (≈ 10 µM). Also, the MBC against Staphylococcus aureus [3] and against Escherichia coli [14] was 20 µg/mL (≈ 20 µM) throughout. In addition, the concentration for half-maximal inhibition (IC50) result in the data set with Pseudomonas aeruginosa is “Not Active”; in the data set with Escherichia coli [17], 10 µg/mL (≈ 10 µM); in the data set with Nakaseomyces glabratus [9] it was “Not Active”. The minimum inhibitory concentration (MIC) in the data set on Candida albicans [4] amounted to 10 µg/mL (≈ 10 µM); in the data set on Aspergillus fumigatus [13] (setting [23]), 20 µg/mL (≈ 20 µM); against Escherichia coli [17], 20 µg/mL (≈ 20 µM); against Pichia kudriavzevii [5], 10 µg/mL (≈ 10 µM); with Staphylococcus aureus [7], 10 µg/mL (≈ 10 µM); against Cryptococcus neoformans [8], 1.25 µg/mL (≈ 1.25 µM). Further, in the data set on Vero, the Activity entry was “Non-Toxic”.
For `Cc1ccc(C[C@H](NC(=O)[C@@H](Cc2ccccc2)NC(=O)[C@@H](Cc2c[nH]c3ccccc23)NC(=O)[C@@H](N)CCCN)C(=O)N[C@H](Cc2ccccc2)C(=O)N[C@@H](CCCN)C(N)=O)cc1` (H-[Orn][dW][dF][Phe(4-Me)][dF][Orn]-NH2), the half-inhibitory concentration (IC50) entry is “Not Active” in the data set on Pseudomonas aeruginosa; “Not Active” with Candida albicans [4]; “Not Active” in the data set with Aspergillus fumigatus [13]; 16.5 µg/mL (≈ 18.6 µM) in the data set with Escherichia coli [17]; 15.5 µg/mL (≈ 17.5 µM) in the data set on Pichia kudriavzevii [5]; “Not Active” in the data set with Staphylococcus aureus [7]. For the same compound, the IC50 with Cryptococcus neoformans [8] was 0.46 µg/mL (≈ 0.519 µM); in the data set on Nakaseomyces glabratus [9], “Not Active”; in [10] it was “Not Active”; in the data set on Staphylococcus aureus [11], “Not Active”. In data set [18], the Stability result is listed as “Stable”. The Activity entry in the data set on Lipid bilayer [19] and with Vero was “Non-Toxic” each time. Also, the minimal inhibitory concentration (MIC) in the data set with Pichia kudriavzevii [5] was 20 µg/mL (≈ 22.5 µM); with Cryptococcus neoformans [8], 0.63 µg/mL (≈ 0.71 µM). Besides, the minimum fungicidal concentration (MFC) in the data set with Cryptococcus neoformans [15] worked out at 0.63 µg/mL (≈ 0.71 µM); with Pichia kudriavzevii [16], 20 µg/mL (≈ 22.5 µM). Moreover, in the data set on Lipid bilayer [20], the outcome was Active. Also, the selectivity ratio in data set [21] was 21 to 25.
In the data set on Aspergillus fumigatus [2], `C[C@@H]1[C@H](O)[C@@H](C)/C=C/C=C/C=C/C=C/C=C/C=C/C=C/[C@H](O[C@@H]2O[C@H](C)[C@@H](O)[C@H](N)[C@@H]2O)C[C@@H]2O[C@](O)(C[C@@H](O)C[C@@H](O)[C@H](O)CC[C@@H](O)C[C@@H](O)CC(=O)O[C@H]1C)C[C@H](O)[C@H]2C(=O)O` [AMPHOTERICIN B] registered a minimum fungicidal concentration (MFC) of 5 µg/mL (≈ 5.41 µM). Besides, the half-maximal inhibitory concentration (IC50) amounted to 1.2 µg/mL (≈ 1.3 µM) in the data set on Aspergillus fumigatus [13] (Aspergillus fumigatus, ATCC 90906, read-out: IC50) and 0.34 µg/mL (≈ 0.368 µM) in the data set with Nakaseomyces glabratus [9] (Nakaseomyces glabratus, ATCC 90030, read-out: IC50). Besides, in the data set with Nakaseomyces glabratus [9] (setting [22]), the MIC was 0.63 µg/mL (≈ 0.682 µM).
